Measured values as given in publication PMC8508980, “Design, Synthesis and Anticancer Profile of New 4-(1H-benzo[d]imidazol-1-yl)pyrimidin-2-amine-Linked Sulfonamide Derivatives with V600EBRAF Inhibitory Effect” (International Journal of Molecular Sciences, 2021).

Legend:
Assay in all cases: NCI 60 cell line screen
Type in all cases: cell-based
A498 = conditions: Homo sapiens; A498, Renal Cancer; read-out: Percent growth
Procedure, shortened: (§1)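 Human tumour lines were grown in RPMI 1640 with 5% FBS and 2 mM L-glutamine, then exposed 48 h at 37 °C to five concentrations (max 10 µM) after 24 h pre-incubation. Growth was measured by sulforhodamine B protein staining at 515 nm relative to time-zero and untreated controls.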

A549/ATCC = conditions: Homo sapiens, Non-Small Cell Lung Cancer, read-out: Percent growth
Procedure, shortened: as §1

CCRF-CEM = conditions: Homo sapiens, Leukemia, read-out: Percent growth
Procedure, shortened: as §1

COLO 205 = conditions: Homo sapiens; COLO 205, Colon Cancer; read-out: Percent growth
Procedure, shortened: as §1

DU-145 = conditions: Homo sapiens; DU-145, Prostate Cancer; read-out: Percent growth
Procedure, shortened: as §1

HCT-116 = conditions: Homo sapiens; HCT-116, Colon Cancer; read-out: Percent growth
Procedure, shortened: as §1

HOP-62 = conditions: Homo sapiens; HOP-62, Non-Small Cell Lung Cancer; read-out: Percent growth
Procedure, shortened: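 Read-out was SRB staining of TCA-fixed cells at 515 nm, with growth computed against time-zero (Tz) and untreated control plates; TGI was taken where Ti = Tz. Drugs were tested at five concentrations up to 10 µM for 48 h at 37 °C, added 24 h after plating in RPMI 1640/5% FBS.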

HS 578T = conditions: Homo sapiens, Breast Cancer, read-out: Percent growth
Procedure, shortened: as §1

MCF7 = conditions: Homo sapiens; MCF7, Breast Cancer; read-out: Percent growth
Procedure, shortened: as §1

MDA-MB-435 = conditions: Homo sapiens; MDA-MB-435, Melanoma; read-out: Percent growth
Procedure, shortened: as §1

OVCAR-3 = conditions: Homo sapiens; OVCAR-3, Ovarian Cancer; read-out: Percent growth
Procedure, shortened: as §1

SF-268 = conditions: Homo sapiens; SF-268, CNS-Cancer; read-out: Percent growth
Procedure, shortened: as §1

SK-OV-3 = conditions: Homo sapiens; SK-OV-3, Ovarian Cancer; read-out: Percent growth
Procedure, shortened: as §1

SN12C = conditions: Homo sapiens, Renal Cancer, read-out: Percent growth
Procedure, shortened: as §1

SNB-19 = conditions: Homo sapiens; SNB-19, CNS-Cancer; read-out: Percent growth
Procedure, shortened: as §1

SW-620 = conditions: Homo sapiens; SW-620, Colon Cancer; read-out: Percent growth
Procedure, shortened: as §1

TK-10 = conditions: Homo sapiens; TK-10, Renal Cancer; read-out: Percent growth
Procedure, shortened: as §1

Compound	activity at 10 µM (A498) [%]	activity at 10 µM (A549/ATCC) [%]	activity at 10 µM (CCRF-CEM) [%]	activity at 10 µM (COLO 205) [%]	activity at 10 µM (DU-145) [%]	activity at 10 µM (HCT-116) [%]	activity at 10 µM (HOP-62) [%]	activity at 10 µM (HS 578T) [%]	activity at 10 µM (MCF7) [%]	activity at 10 µM (MDA-MB-435) [%]	activity at 10 µM (OVCAR-3) [%]	activity at 10 µM (SF-268) [%]	activity at 10 µM (SK-OV-3) [%]	activity at 10 µM (SN12C) [%]	activity at 10 µM (SNB-19) [%]	activity at 10 µM (SW-620) [%]	activity at 10 µM (TK-10) [%]
Cc1ccc(S(=O)(=O)NCCNc2nccc(-n3cnc4ccccc43)n2)cc1 [12g, N-(2-((4-(1H-benzo [d]imidazol-1-yl)pyrimidin-2-yl)amino)ethyl)-4-methyl benzenesulfonamide]	62.1	82.4	69.5	86.8	89.3	64.1	69.6	64.2	67.9	84.1	82	68.8	79.5	79	86.8	90.8	83.7
O=S(=O)(NCCNc1nccc(-n2cnc3ccccc32)n1)c1ccc(C(F)(F)F)cc1 [12e, N-(2-((4-(1H-benzo [d]imidazol-1-yl)pyrimidin-2-yl)amino)ethyl)-4-(trifluoromethyl)benzenesulfonamide]	56.6	55.4	57.6	64.9	71.8	40.1	66.1	42.9	34.9	64.4	72.9	59.5	62.2	72.5	69.8	83.5	63.4
O=S(=O)(NCCCNc1nccc(-n2cnc3ccccc32)n1)c1cccc2ccccc12 [12n, N-(3-((4-(1H-benzo [d]imidazol-1-yl)pyrimidin-2-yl)amino)propyl)naphthalene-1-sulfonamide]	72.1	86.3	70.9	96.4	94.5	75.9	87.1	78.3	83.4	93.4	96.8	86.8	92.5	85.9	94.2	106	95.7
O=S(=O)(NCCNc1nccc(-n2cnc3ccccc32)n1)c1ccc(Cl)cc1 [12c, N-(2-((4-(1H-benzo [d]imidazol-1-yl)pyrimidin-2-yl)amino)ethyl)-4-chlorobenzenesulfonamide]	84.8	103	103	104	104	94.6	95.4	88.1	87.9	100	106	92.3	112	96.6	97.7	100	101
O=S(=O)(NCCCNc1nccc(-n2cnc3ccccc32)n1)c1ccc(F)cc1 [12i, N-(3-((4-(1H-benzo [d]imidazol-1-yl)pyrimidin-2-yl)amino)propyl)-4-fluorobenzenesulfonamide]	70.5	88.8	49	86	87.2	58.7	82.7	82.4	63.7	64.6	86.7	86.3	85.2	89	92.6	96.2	91.9
O=S(=O)(NCCCNc1nccc(-n2cnc3ccccc32)n1)c1ccccc1 [12h, N-(3-((4-(1H-benzo [d]imidazol-1-yl)pyrimidin-2-yl)amino)propyl)benzenesulfonamide]	78.4	97.6	88.1	102	99.2	90.3	96.9	93.7	87.7	95.5	106	91.7	105	94.3	103	107	103
